Like-named read-outs stand apart in the source and are kept apart here.
What was measured:
Mcl-1 = Mcl-1 (Homo sapiens (Human), UniProt Q07820); assay: Fluorescence polarization anisotropy (FPA) competition assay, FITC-Bak or FITC-Bim BH3 peptide; format: binding; settings: read-out: Ki for Inhibition of Mcl-1 by FPA assay
[1] = system: H929 human cancer cell lines; assay: Cellular viability / proliferation (Cell TiterGlo, 72 h); format: cell-based
How it was run: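 1,000 cells/well, 10% FBS medium; compound added at 24 h, 2-fold dilutions from 50 μM top, DMSO <1% final. 72 h exposure, CellTiterGlo 30 min RT dark, luminescence read. IC50 by 4-parameter fit.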

[2] = Homo sapiens, NCI-H929, 72 h, read-out: GI50 on cellular proliferation of H929 human cancer cell lines, H929 cells, 72 h, Cell TiterGlo, 10% FBS

Sequence of Mcl-1 (Q07820 172-327): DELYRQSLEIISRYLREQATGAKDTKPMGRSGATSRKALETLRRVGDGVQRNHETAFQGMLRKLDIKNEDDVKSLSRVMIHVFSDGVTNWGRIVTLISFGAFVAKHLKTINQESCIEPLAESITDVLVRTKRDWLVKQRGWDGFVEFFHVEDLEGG

SMILES | Ki (Mcl-1) [nM] | GI50 [1, 2] [nM] | GI50 ([1]; H929 cells, 72 h, Cell TiterGlo, 10% FBS, read-out: GI50 on cellular proliferation of H929 human cancer cell lines) [nM]
Cc1cc(OCCCc2c3n(c4c(-c5c(C)nn(C)c5C)c(Cl)ccc24)[C@H](C)CN(c2cccc4c(C(=O)O)n(C)nc24)C3=O)cc(C)c1Cl [Example 54, (R)-7-(7-chloro-10-(3-(4-chloro-3,5-dimethylphenoxy)propyl)-4-methyl-1-oxo-6-(1,3,5-trimethyl-1H-pyrazol-4-yl)-3,4-dihydropyrazino[1,2-a]indol-2(1H)-yl)-2-methyl-2H-indazole-3-carboxylic acid] | < 1 | 320 | 
COc1cccc(Cn2c(C(=O)O)cc3cccc(N4C[C@@H](C)n5c(c(CCCOc6cc(C)c(Cl)c(C)c6)c6ccc(Cl)c(-c7c(C)nn(C)c7C)c65)C4=O)c32)n1 [Example 360, (R)-7-(7-Chloro-10-(3-(4-chloro-3,5-dimethylphenoxy)propyl)-4-methyl-1-oxo-6-(1,3,5-trimethyl-1H-pyrazol-4-yl)-3,4-dihydropyrazino[1,2-a]indol-2(1H)-yl)-1-((6-methoxypyridin-2-yl)methyl)-1H-indole-2-carboxylic acid] | 2.5 | 2500 | 
Cc1cc(OCCCc2c3n(c4c(-c5c(C)nn(C)c5C)c(Cl)ccc24)[C@H](C)CN(c2cn(C)c4cccc(C(=O)O)c24)C3=O)cc(C)c1Cl [Example 106, (R)-3-(7-Chloro-10-(3-(4-chloro-3,5-dimethylphenoxy)propyl)-4-methyl-1-oxo-6-(1,3,5-trimethyl-1H-pyrazol-4-yl)-3,4-dihydropyrazino[1,2-a]indol-2(1H)-yl)-1-methyl-1H-indole-4-carboxylic acid] | < 1 | 790 | 
Cc1cc(OCCCc2c3n(c4c(-c5c(C)nn(C)c5C)c(Cl)ccc24)[C@H](C)CN(c2c[nH]c4ccc(-c5ncn(C)n5)cc24)C3=O)cc(C)c1Cl [Example 471, (R)-7-chloro-10-(3-(4-chloro-3,5-dimethylphenoxy)propyl)-4-methyl-2-(5-(1-methyl-1H-1,2,4-triazol-3-yl)-1H-indol-3-yl)-6-(1,3,5-trimethyl-1H-pyrazol-4-yl)-3,4-dihydropyrazino[1,2-a]indol-1(2H)-one] | 2.3 | 360 | 
CCn1ncc2c(C(=O)O)cc(N3CCCn4c(c(CCCOc5cc(C)c(Cl)c(C)c5)c5ccc(Cl)c(-c6c(C)nn(C)c6C)c54)C3=O)cc21 [Example 39, 6-[8-chloro-11-[3-(4-chloro-3,5-dimethyl-phenoxy)propyl]-1-oxo-7-(1,3,5-trimethylpyrazol-4-yl)-4,5-dihydro-3H-[1,4]diazepino[1,2-a]indol-2-yl]-1-ethyl-indazole-4-carboxylic acid] | 1.1 | 920 | 
Cc1cc(OCCCc2c3n(c4c(-c5c(C)nn(C)c5C)c(Cl)ccc24)CCCN(c2cc(C(=O)O)cc4nn(C)cc24)C3=O)cc(C)c1Cl [Example 36, 4-[8-Chloro-11-[3-(4-chloro-3,5-dimethyl-phenoxy)propyl]-1-oxo-7-(1,3,5-trimethylpyrazol-4-yl)-4,5-dihydro-3H-[1,4]diazepino[1,2-a]indol-2-yl]-2-methyl-indazole-6-carboxylic acid] | < 1 | 2600 | 
Cc1cc(N2C[C@@H](C)n3c(c(CCCOc4cc(C)c(Cl)c(C)c4)c4ccc(Cl)c(-c5c(C)nn(C)c5C)c43)C2=O)c2c(c1)cc(C(=O)O)n2CC1CCOCC1 [Example 324, (R)-7-(7-Chloro-10-(3-(4-chloro-3,5-dimethylphenoxy)propyl)-4-methyl-1-oxo-6-(1,3,5-trimethyl-1H-pyrazol-4-yl)-3,4-dihydropyrazino[1,2-a]indol-2(1H)-yl)-5-methyl-1-((tetrahydro-2H-pyran-4-yl)methyl)-1H-indole-2-carboxylic acid] | < 1 | 610 | 
Cc1cc(OCCCc2c3n(c4c(-c5c(C)nn(C)c5C)c(Cl)ccc24)[C@H](C)CN(c2cccc4c2cc(C(=O)O)n4CC2CCOCC2)C3=O)cc(C)c1Cl [Example 198, (R)-4-(7-Chloro-10-(3-(4-chloro-3,5-dimethylphenoxy)propyl)-4-methyl-1-oxo-6-(1,3,5-trimethyl-1H-pyrazol-4-yl)-3,4-dihydropyrazino[1,2-a]indol-2(1H)-yl)-1-((tetrahydro-2H-pyran-4-yl)methyl)-1H-indole-2-carboxylic acid] | < 1 | 610 | 
Cc1cc(N2C[C@@H](C)n3c(c(CCCOc4cc(C)c(Cl)c(C)c4)c4ccc(Cl)c(-c5c(C)nc(CN6CCN(C)CC6)nc5C)c43)C2=O)c2c(c1)cc(C(=O)O)n2C [Example 426, (R)-7-(7-Chloro-10-(3-(4-chloro-3,5-dimethylphenoxy)propyl)-6-(4,6-dimethyl-2-((4-methylpiperazin-1-yl)methyl)pyrimidin-5-yl)-4-methyl-1-oxo-3,4-dihydropyrazino[1,2-a]indol-2(1H)-yl)-1,5-dimethyl-1H-indole-2-carboxylic acid] | < 1 | 250 | 
Cc1cc(OCCCc2c3n(c4c(-c5c(C)ncnc5C)c(Cl)ccc24)[C@H](C)CN(c2cccc4c(C(=O)O)cn(C)c24)C3=O)cc(C)c1Cl [Example 168, 7-[(4R)-7-chloro-10-[3-(4-chloro-3,5-dimethyl-phenoxy)propyl]-6-(4,6-dimethylpyrimidin-5-yl)-4-methyl-1-oxo-3,4-dihydropyrazino[1,2-a]indol-2-yl]-1-methyl-indole-3-carboxylic acid] | 1.1 | 1000 | 
Cc1cc(OCCCc2c3n(c4c(-c5c(C)nc(CNC6CCN(C)CC6)nc5C)c(Cl)ccc24)[C@H](C)CN(c2cn(C)c4ccc(C(=O)O)cc24)C3=O)cc(C)c1Cl [Example 437, (R)-3-(7-Chloro-10-(3-(4-chloro-3,5-dimethylphenoxy)propyl)-6-(4,6-dimethyl-2-(((1-methylpiperidin-4-yl)amino)methyl)pyrimidin-5-yl)-4-methyl-1-oxo-3,4-dihydropyrazino[1,2-a]indol-2(1H)-yl)-1-methyl-1H-indole-5-carboxylic acid] | 4.7 | 1200 | 
Cc1cc(OCCCc2c3n(c4c(-c5c(C)nn(C)c5C)c(Cl)ccc24)[C@H](C)CN(c2cccc4c2cc(C(=O)O)n4CCN2CCOCC2)C3=O)cc(C)c1Cl [Example 367, (R)-4-(7-Chloro-10-(3-(4-chloro-3,5-dimethylphenoxy)propyl)-4-methyl-1-oxo-6-(1,3,5-trimethyl-1H-pyrazol-4-yl)-3,4-dihydropyrazino[1,2-a]indol-2(1H)-yl)-1-(2-morpholinoethyl)-1H-indole-2-carboxylic acid] | 1.2 | 400 | 
Cc1cc(OCCCc2c3n(c4c(-c5c(C)nn(C)c5C)c(Cl)ccc24)CCCN(c2cc(C(=O)O)c4cnn(CCN5CCOCC5)c4c2)C3=O)cc(C)c1Cl [Example 14, 6-[8-Chloro-11-[3-(4-chloro-3,5-dimethyl-phenoxy)propyl]-1-oxo-7-(1,3,5-trimethylpyrazol-4-yl)-4,5-dihydro-3H-[1,4]diazepino[1,2-a]indol-2-yl]-1-(2-morpholinoethyl)indazole-4-carboxylic acid] | < 1 | 3200 | 
Cc1cc(OCCCc2c3n(c4c(-c5c(C)n[nH]c5C)c(Cl)ccc24)[C@H](C)CN(c2cc(C(=O)O)c4ccn(C)c4c2)C3=O)cc(C)c1Cl [Example 70, (R)-6-(7-chloro-10-(3-(4-chloro-3,5-dimethylphenoxy)propyl)-6-(3,5-dimethyl-1H-pyrazol-4-yl)-4-methyl-1-oxo-3,4-dihydropyrazino[1,2-a]indol-2(1H)-yl)-1-methyl-1H-indole-4-carboxylic acid] | < 1 | 2400 | 
Cc1cc(OCCCc2c3n(c4c(-c5c(C)nn(C)c5C)c(Cl)ccc24)[C@H](C)CN(c2ccc4cc(C(=O)O)ccc4c2)C3=O)cc(C)c1Cl [Example 185, (R)-6-(7-Chloro-10-(3-(4-chloro-3,5-dimethylphenoxy)propyl)-4-methyl-1-oxo-6-(1,3,5-trimethyl-1H-pyrazol-4-yl)-3,4-dihydropyrazino[1,2-a]indol-2(1H)-yl)-2-naphthoic acid] | 4.6 | 2900 | 
Cc1cc(OCCCc2c3n(c4c(-c5c(C)n[nH]c5C)c(Cl)ccc24)CCCN(c2cccc4cccnc24)C3=O)cc(C)c1Cl [Example 150, 8-Chloro-11-(3-(4-chloro-3,5-dimethylphenoxy)propyl)-7-(3,5-dimethyl-1H-pyrazol-4-yl)-2-(quinolin-8-yl)-2,3,4,5-tetrahydro-1H-[1,4]diazepino[1,2-a]indol-1-one] | 13 |  | 5100
Cc1cc(OCCCc2c3n(c4c(-c5c(C)nn(C)c5C)c(Cl)ccc24)[C@H](C)CN(c2cccc4cc(C(=O)O)n(Cc5ccccc5)c24)C3=O)cc(C)c1Cl [Example 241, 1-Benzyl-7-[(4R)-7-chloro-10-[3-(4-chloro-3,5-dimethyl-phenoxy)propyl]-4-methyl-1-oxo-6-(1,3,5-trimethylpyrazol-4-yl)-3,4-dihydropyrazino[1,2-a]indol-2-yl]indole-2-carboxylic acid] | < 1 | 420 | 
Cc1cc(OCCCc2c3n(c4c(-c5c(C)nn(C)c5C)c(Cl)ccc24)[C@H](C)CN(c2cn(CCN4CCOCC4)c4cc(C(=O)O)ccc24)C3=O)cc(C)c1Cl [Example 292, (R)-3-(7-chloro-10-(3-(4-chloro-3,5-dimethylphenoxy)propyl)-4-methyl-1-oxo-6-(1,3,5-trimethyl-1H-pyrazol-4-yl)-3,4-dihydropyrazino[1,2-a]indol-2(1H)-yl)-1-(2-morpholinoethyl)-1H-indole-6-carboxylic acid] | < 1 | 690 | 
Cc1cc(OCCCc2c3n(c4c(-c5c(C)nn(C)c5C)c(Cl)ccc24)[C@H](C)CN(c2cccc4nc(C(=O)O)ccc24)C3=O)cc(C)c1Cl [Example 184, (R)-5-(7-chloro-10-(3-(4-chloro-3,5-dimethylphenoxy)propyl)-4-methyl-1-oxo-6-(1,3,5-trimethyl-1H-pyrazol-4-yl)-3,4-dihydropyrazino[1,2-a]indol-2(1H)-yl)quinoline-2-carboxylic acid] | < 1 | 770 | 
